Measurements from article PMC4057667, “Study on Biopharmaceutics Classification and Oral Bioavailability of a Novel Multikinase Inhibitor NCE for Cancer Therapy” (International Journal of Molecular Sciences, 2014).
Where “and” joins values, the source holds several entries; their conditions need not be identical. Identical values can stand only once.

Columns and labels:
[1] = test system: vascular endothelial growth factor receptor 2 (VEGFR2); set-up: method as in PMID 21691074; details: at a concentration of 10 μM; cited from earlier work
[2] = test system: fibroblast growth factor receptor 2 (FGFR2); set-up: method as in PMID 21691074; details: at a concentration of 10 μM; cited from earlier work
[3] = test system: rat duodenum, jejunum and ileum; assay: In situ single-pass intestinal perfusion (SPIP)
Experimental: The blank perfusion buffer solution was composed of 9.80 g Hanks’ Balanced Salts, 5.96 g 4-2(Hydroxyethyl) piperazine-1-ethanesulfonic acid (HEPES), 1.16 g NaCl, 3.50 g D-glucose and 0.37 g NaHCO3. The pH was adjusted to 6.5. […] The perfusate containing 2 μg/mL of NCE with and without 0.4% SDS was applied to three intestinal segments to investigate the effect of SDS on intestinal absorption of NCE. To examine whether there was any concentration-dependent characteristics or site specific absorption of NCE, 2, 20 and 40 μg/mL of NCE containing 0.4% SDS (w/v) were also studied in three intestinal segments using the same rat perfusion model.
Male Sprague-Dawley rats (170–230 g) were obtained from the Laboratory Animal Center, Sichuan University (Chengdu, China). Prior to the experiment, animals were fasted for at least 18 h with free access to water. All animal studies were approved and supervised by the State Key Laboratory of Biotherapy Animal Care and Use Committee (Sichuan University, Chengdu, Sichuan, China). Then, single pass intestine perfusion studies were conducted according to the literature. In brief, rats were anaesthetized by pentobarbital sodium (i.p., […]) and placed on a homeothermic pad to maintain their body temperature. After making a 3–4 cm midline abdominal incision, the small intestinal was exposed. The duodenum, jejunum and ileum were isolated as follows: duodenum segment beginning from 1 cm away from pylorus, jejunum segment beginning from 20 cm away from pylorus and ileum segment beginning at the site 20 cm upwards caecum. Each intestinal segment was approximately 10 cm long. After removing the intestinal content by rinsing with warm saline, two glass cannulas were inserted to the distal and proximal end of the segment. Then, the intestinal segments of interest were connected to a perfusion pump and the outlet tubing was placed at the same height as the inlet. The intestine was handled carefully to maintain an intact blood supply.
The segments were rinsed with perfusate at the rate of 1.0 mL/min for 10 min, and then perfused at the rate of 0.2 mL/min for 30 min to maintain a steady-state. The time was set zero immediately when the perfusion started. The outlet perfused samples were collected every 15 min until 120 min. Then, the samples were centrifuged at 1.3 × 10^4 rpm for 10 min. The supernatant was analyzed by HPLC. The length of tested segments was measured and rats were euthanized after experiment.
Peff is the quantitative parameter estimating the passage rate of a solute across a membrane. It was calculated from the steady-state concentration of NCE in the perfusate. The drug concentration in the perfusate was corrected for changes in the water flux. Meanwhile, the density corrected gravimetric method was employed to calculate the net water flux across the incubated intestinal segment. A known volume of perfusate was weighed using an electronic weighing balance to determine the density of the collected samples. After correcting for water flux, the drug concentration in the effluent perfusate (Cout(cor)), was calculated as following.
(3) Cout(cor)=Cout×Qout/Qin
where Cout is the concentration of tested drug in the effluent perfusates, Qin and Qout are the inlet and outlet flow rate (mL/min), respectively, which are adjusted for liquid density (mL/min).
The calculation of permeability across rat intestinal segment was performed from the intestinal perfusate samples collected over 15–120 min (steady state) using the following equation).
(4) Peff=-Qin ln(Cout(cor)/Cin)/2πrl

[4] = Solubility with sodium dodecyl sulfate (SDS) added; assay type: physicochemical; details: aqueous with cosolvent or surfactant or cyclodextrin
Experimental: Intrinsic dissolution ratio is defined as the dissolution rate of a pure drug substance under the condition of constant surface area, agitation or stirring speed, pH and ionic strength of the dissolution medium. As a rate characterization, IDR data has a good correlation with in vivo drug dissolution rate. […] Three different SDS concentrations were tested. The solubilities of NCE were 54.46 (0.4% SDS), 131.83 (1% SDS) and 255.91 (2% SDS) μg/mL. The volume of the release medium in this experiment was 900 mL, thus the introduction of 1% SDS into the medium was enough to achieve sink condition.
The concentration of NCE in perfusion buffer containing 0.4% SDS was high enough to conduct the following intestinal permeability study. Additionally, according to preliminary experiments, SDS with concentrations higher than 1% would be toxic to rats.

Question: Which inhibition rate [1] does the source give for `CNC(=O)c1cc(Oc2ccc(NC(=O)c3cccc(C(F)(F)F)c3)cc2)ccn1.Cc1ccc(S(=O)(=O)O)cc1.O` [NCE, 2-methylcarbamoyl-4-{4-[3-(trifluoromethyl)benzamido]phenoxy} pyridinium 4-methylbenzenesulfonate monohydrate] here?
Answer: 97%

Question: What about the inhibition rate [2] of the same molecule?
Answer: 65%

Question: What about the Peff ([3]; Duodenum, 2 μg/mL, with 0.4% SDS, n = 3) of the same molecule?
Answer: 0.26 ± 0.25 ^N.S. 10^−4 cm/s

Question: And the Peff ([3]; Duodenum, 2 μg/mL, without SDS, n = 3)?
Answer: 0.26 ± 0.29 10^−4 cm/s

Question: What about the Peff ([3]; Duodenum, perfusate 2 μg/mL, 0.4% SDS, n = 6) of the same molecule?
Answer: 0.21 ± 0.18 10^−4 cm/s

Question: And the Peff ([3]; Duodenum, perfusate 20 μg/mL, 0.4% SDS, n = 6)?
Answer: 0.34 ± 0.12 10^−4 cm/s

Question: What about the Peff ([3]; Duodenum, perfusate 40 μg/mL, n = 6) of the same molecule?
Answer: 0.49 ± 0.29 ^* 10^−4 cm/s and 0.49 ± 0.29 10^−4 cm/s

Question: And the Peff ([3]; Ileum, 2 μg/mL, with 0.4% SDS, n = 3)?
Answer: 0.22 ± 0.15 ^N.S. 10^−4 cm/s

Question: What about the Peff ([3]; Ileum, 2 μg/mL, without SDS, n = 3) of the same molecule?
Answer: 0.23 ± 0.18 ^N.S. 10^−4 cm/s

Question: And the Peff ([3]; Ileum, perfusate 2 μg/mL, 0.4% SDS, n = 6)?
Answer: 0.23 ± 0.25 ^N.S. 10^−4 cm/s

Question: And the Peff ([3]; Ileum, perfusate 20 μg/mL, 0.4% SDS, n = 6)?
Answer: 0.29 ± 0.10 ^N.S. 10^−4 cm/s

Question: And the Peff ([3]; Ileum, perfusate 40 μg/mL, n = 6)?
Answer: 0.52 ± 0.28 ^N.S. ^* 10^−4 cm/s and 0.52 ± 0.28 ^N.S. 10^−4 cm/s

Question: What about the Peff ([3]; Jejunum, 2 μg/mL, with 0.4% SDS, n = 3) of the same molecule?
Answer: 0.25 ± 0.22 ^N.S. 10^−4 cm/s

Question: What about the Peff ([3]; Jejunum, 2 μg/mL, without SDS, n = 3) of the same molecule?
Answer: 0.25 ± 0.24 ^N.S. 10^−4 cm/s

Question: What about the Peff ([3]; Jejunum, perfusate 2 μg/mL, 0.4% SDS, n = 6) of the same molecule?
Answer: 0.20 ± 0.30 ^N.S. 10^−4 cm/s

Question: And the Peff ([3]; Jejunum, perfusate 20 μg/mL, 0.4% SDS, n = 6)?
Answer: 0.30 ± 0.15 ^N.S. 10^−4 cm/s

Question: What about the Peff ([3]; Jejunum, perfusate 40 μg/mL, n = 6) of the same molecule?
Answer: 0.56 ± 0.26 ^N.S. ^* 10^−4 cm/s and 0.56 ± 0.26 ^N.S. 10^−4 cm/s

Question: And the “transportation mechanism in intestine” value ([3]; Peff unchanged from 2–40 μg/mL)?
Answer: passive diffusion

Question: And the permeability class ([3]; from Peff compared with theophylline, ranitidine and propranolol)?
Answer: high permeability

Question: And the “minimum of Peff” value ([3]; three segments, three concentrations, found in jejunum)?
Answer: 2e-05 cm/s

Question: What about the solubility ([4]; phosphate buffer with 0.4% SDS) of the same molecule?
Answer: 54.5 µg/mL

Question: What about the solubility ([4]; phosphate buffer with 1% SDS) of the same molecule?
Answer: 132 µg/mL

Question: And the solubility ([4]; phosphate buffer with 2% SDS)?
Answer: 256 µg/mL
